One assay has as its system STAT6. As to the kind of experiment: STAT6 inhibition test: (GLS)x8/pTA-Luc luciferase reporter in U2-OS cells stimulated with human IL-4. In kind it is cell-based. The conditions noted are these: human IL-4 40 ng/mL; for Inhibition Rate of STAT6 (%): compound 2 μM, 8 hours; for IC50: from inhibition rates at 1, 0.1, 0.01 and 0.001 μM, read-out: IC50 against activation of STAT6. For orientation: In a reporter assay the amount or activity of a reporter protein is the signal.

A further assay relates to NF-κB. As to the kind of experiment: NF-κB inhibition test: pNFκB-Luc luciferase reporter in U2-OS cells stimulated with human TNF α. In kind it is cell-based. The settings on record: human TNF α 10 ng/mL; for Inhibition Rate of NF-κB (%): compound 2 μM, 8 hours; for IC50: from inhibition rates at 1, 0.1, 0.01 and 0.001 μM, read-out: IC50 against activation of NF-κB.

What is called IC50 is the concentration at which inhibition is half-maximal.

SMILES strings stand for the structures.

Take `Cl.O=C(Nc1ccc(N2CCCNCC2)c(Cl)c1)c1cc(Cl)ccc1O` [compound 81]: in the assay on STAT6, the “Inhibition Rate of STAT6 (%)” value is recorded as 92 (2 μM) % and the IC50 is 0.0109 µM. In addition, in the assay on NF-κB, the “Inhibition Rate of NF-κB (%)” value was 90 (2 μM) % and the half-inhibitory concentration (IC50) is 0.0178 µM.
Regarding `CC1CCC(C)N1c1ccc(NC(=O)c2cc(Cl)ccc2O)cc1F.Cl` (centres unmarked) [compound 83], in the assay on STAT6, the “Inhibition Rate of STAT6 (%)” value is listed as 80 (2 μM) %. Besides, the “Inhibition Rate of NF-κB (%)” value with NF-κB was 59 (2 μM) %.
In the same order, the values of `CC1CCC(C)N1c1ccc(NC(=O)c2cc(Cl)ccc2O)cc1F` (centres unmarked) [compound 84] are 83 (2 μM) % and 61 (2 μM) %.
In the same order, the values of `CC1CN(c2ccc(NC(=O)c3cc(Cl)ccc3O)cc2F)C(C)CN1.Cl.Cl` (centres unmarked) [compound 85] are 72 (2 μM) % and 79 (2 μM) %.
As for `CN1CCCN(c2ccc(NC(=O)c3cc(Br)ccc3O)cc2F)CC1` [compound 86], in the assay with STAT6, the “Inhibition Rate of STAT6 (%)” value is on record as 93 (2 μM) % and the IC50 was 0.0108 µM. Also, in the assay with NF-κB, the “Inhibition Rate of NF-κB (%)” value is given as 93 (2 μM) % and the IC50 was 0.00762 µM.
`O=C(Nc1ccc(N2CCCNCC2)c(F)c1)c1cc(Br)ccc1O` [compound 87]: in the assay on STAT6, the “Inhibition Rate of STAT6 (%)” value is 91 (2 μM) % and the IC50 is 0.0183 µM. Moreover, in the assay on NF-κB, the “Inhibition Rate of NF-κB (%)” value is 93 (2 μM) % and the IC50 was determined as 0.0117 µM.
The corresponding values for `CC1CNCCN1c1ccc(NC(=O)c2cc(Cl)ccc2O)cc1F.Cl` (centres unmarked) [compound 88] are 90 (2 μM) %, 0.0255 µM, 90 (2 μM) % and 0.0219 µM.
For `CCC1CNCCN1c1ccc(NC(=O)c2cc(Cl)ccc2O)cc1F.Cl` (centres unmarked) [compound 89], the “Inhibition Rate of STAT6 (%)” value with STAT6 was 62 (2 μM) %. The “Inhibition Rate of NF-κB (%)” value with NF-κB is 62 (2 μM) %.
With `CN1CCN(c2ccc(NC(=O)c3cc(C#N)ccc3O)cc2F)CC1.Cl` [compound 90], the “Inhibition Rate of STAT6 (%)” value with STAT6 is on record as 11 (2 μM) %. Also, in the assay with NF-κB, the “Inhibition Rate of NF-κB (%)” value is 18 (2 μM) %.

The values are drawn from patent US7671058B2, “N-(3,4-disubstituted phenyl) salicylamide derivatives” (Institute of Medicinal Molecular Design, Inc., priority 2006, dated 2010).
